pIC50: −log10 of the molar value. Active and inactive are the calls of the source. No cut-off for these calls is given here.
Columns and labels:
RKO [1] = assay: Induction of apoptosis in human RKO cells assessed as late apoptotic cells at 0.2 uM incubated for 24 hrs by propidium iodide and Annexin V/FITC staining based flow cytometry assay (reference value: 0.50%); format: functional
MGC-803 [2] = assay: Induction of apoptosis in human MGC-803 cells assessed as early apoptotic cells at 0.05 uM incubated for 24 hrs by propidium iodide and Annexin V/FITC staining based flow cytometry assay (reference value: 1.85%); format: functional
RKO [3] = assay: Induction of apoptosis in human RKO cells assessed as early apoptotic cells at 0.1 uM incubated for 24 hrs by propidium iodide and Annexin V/FITC staining based flow cytometry assay (reference value: 0.16%); format: functional
Tubulin (Homo sapiens) = Tubulin (Homo sapiens) (UniProt P68371+Q9H4B7+P0DPH7+P68366+Q13509+Q71U36+P04350+Q3ZCM7+P07437+P68363+Q9BQE3+Q6PEY2+Q13885+Q9BVA1+Q9BUF5); assay: Induction of microtubule disruption in human RKO cells assessed as atrophied nucleus at 50 to 200 nM incubated for 24 hrs by laser confocal microscopic analysis; format: cell-based; details: dose 50-200 nM
MGC-803 [4] = assay: Induction of cell cycle arrest in human MGC-803 cells assessed as accumulation of cells at G2/M phase at 0.05 to 0.2 uM incubated for 24 hrs by propidium iodide staining based flow cytometry analysis; format: functional; details: dose 0.05-0.2 µM
[5] = Induction of cell cycle arrest in human RKO cells assessed as accumulation of cells at G2/M phase at 0.05 uM incubated for 24 hrs by propidium iodide staining based flow cytometry analysis; format: functional
MGC-803 [6] = assay: Inhibition of cell […] in human MGC-803 cells incubated for 24 hrs by scratch wound healing assay; format: functional, cell-based; details: dose 12.5-50 nM
MGC-803 [7] = assay: Induction of morphological changes in human MGC-803 cells assessed as cell deformation at 0.05 to 0.2 uM incubated for 24 hrs by Giemsa staining based micrscopic analysis; format: functional; details: dose 0.05-0.2 µM
MGC-803 [8] = assay: Induction of apoptosis in human MGC-803 cells assessed as early apoptotic cells at 0.1 uM incubated for 24 hrs by propidium iodide and Annexin V/FITC staining based flow cytometry assay (reference value: 1.85%); format: functional
MGC-803 [9] = assay: Induction of apoptosis in human MGC-803 cells assessed as late apoptotic cells at 0.1 uM incubated for 24 hrs by propidium iodide and Annexin V/FITC staining based flow cytometry assay (reference value: 4.10%); format: functional
MGC-803 [10] = assay: Antiproliferative activity against human MGC-803 cells assessed as reduction in cell viability incubated for 72 hrs by MTT assay; format: functional, cell-based; details: MGC-803, 72 h
RKO [11] = assay: Induction of morphological changes in human RKO cells assessed as cell shrinkage at 0.05 to 0.2 uM incubated for 24 hrs by Giemsa staining based micrscopic analysis; format: functional; details: dose 0.05-0.2 µM
MGC-803 [12] = assay: Inhibition of colony formation in human MGC-803 cells incubated for 7 days by crystal violet staining based assay; format: functional, cell-based; details: dose 10-90 nM, time 7.0 day
SW480 = assay: Antiproliferative activity against human SW480 cells assessed as reduction in cell viability incubated for 72 hrs by MTT assay; format: functional, cell-based; details: SW480, 72 h
[13] = target: T1, DNA topoisomerase 1 (Homo sapiens) (UniProt P11387); assay: Inhibition of topoisomerase 1 (unknown origin) at 50 uM using PBR322 DNA as substrate incubated for 30 mins by agarose gel electrophoresis relative to control
T1 sequence (whole entry): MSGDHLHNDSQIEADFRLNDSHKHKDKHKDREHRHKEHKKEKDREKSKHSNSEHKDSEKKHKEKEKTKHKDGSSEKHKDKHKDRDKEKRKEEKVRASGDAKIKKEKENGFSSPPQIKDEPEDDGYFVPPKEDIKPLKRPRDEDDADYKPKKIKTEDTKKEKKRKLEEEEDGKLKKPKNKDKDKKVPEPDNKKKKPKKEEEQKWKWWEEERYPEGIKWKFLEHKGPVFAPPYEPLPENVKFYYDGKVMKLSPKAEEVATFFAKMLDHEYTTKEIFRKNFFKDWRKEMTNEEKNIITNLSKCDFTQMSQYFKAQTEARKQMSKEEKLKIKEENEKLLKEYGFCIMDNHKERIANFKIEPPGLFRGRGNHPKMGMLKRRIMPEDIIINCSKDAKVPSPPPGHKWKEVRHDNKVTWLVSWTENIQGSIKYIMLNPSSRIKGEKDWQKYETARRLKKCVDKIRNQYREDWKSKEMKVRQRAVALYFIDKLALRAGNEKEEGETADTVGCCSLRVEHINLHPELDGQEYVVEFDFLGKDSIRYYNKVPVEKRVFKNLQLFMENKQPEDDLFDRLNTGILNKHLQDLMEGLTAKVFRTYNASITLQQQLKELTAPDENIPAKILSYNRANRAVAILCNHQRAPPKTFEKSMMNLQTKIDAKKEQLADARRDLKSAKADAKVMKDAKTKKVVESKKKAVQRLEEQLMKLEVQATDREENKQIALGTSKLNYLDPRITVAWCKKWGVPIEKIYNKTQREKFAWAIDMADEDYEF

RKO [14] = assay: Inhibition of colony formation in human RKO cells at 90 nM incubated for 7 days by crystal violet staining based assay; format: functional, cell-based; details: time 7.0 day

In the case of `CCCN1c2ccccc2C(=O)N2CCc3c([nH]c4ccccc34)C21` (stereo unspecified), the Activity (RKO [1]) was 37.67%, the Activity (MGC-803 [2]) was 3.03% and the Activity (RKO [3]) was 14.52%. For the same compound, the Activity (Tubulin (Homo sapiens)) was “Active”, the Activity (MGC-803 [4]) was “Active” and the Activity [5] was 40.55%. For the same compound, the inhibition (MGC-803 [6]) was “Dose-Dependent Effect”, the Activity (MGC-803 [7]) was “Active” and the Activity (MGC-803 [8]) was 6.76%. The Activity (MGC-803 [9]) was 24.63%, the pIC50 (MGC-803 [10]) was 7.05 and the Activity (RKO [11]) was “Active”. For the same compound, the inhibition (MGC-803 [12]) was “Dose-Dependent Effect”, the pIC50 (SW480) was 6.15 and the inhibition [13] was 58.3%. The inhibition (RKO [14]) was “Active”.
